Data: US8399501B2, “Crystalline alkoxyimidazol-1-ylmethyl biphenyl carboxylic acid and methods for preparing thereof” (Theravance, Inc., priority 2010, dated 2013)
Blank lines part the entries; values can stand above or below the compound they belong to.

Experiment: Solid state stability assessment (storage at 40° C. with desiccant, impurities by HPLC)
Type: physicochemical
Settings: for % M + 28 (ethyl ester imidazole impurity, HPLC area percentage) / % M − 28 (acid dihydroimidazole impurity, HPLC area percentage) / Δ % M + 28 (increase relative to time zero) / Δ % M − 28 (increase relative to time zero): closed vials, Molecular Sieve 4A dessicant
Protocol: Samples of the crystalline 4′-{2-ethoxy-4-ethyl-5-[((S)-2-mercapto-4-methylpentanoyl-amino)methyl]imidazol-1-ylmethyl}-3′-fluorobiphenyl-2-carboxylic acid, the micronized crystalline compound, and the slurried micronized crystalline compound, about 15 mg each, were stored in multiple closed vials at 40° C. (with 1 g Molecular Sieve 4A dessicant included). At specific intervals, the entire contents of representative vials were analyzed by the following HPLC method:
Column: Agilent Zorbox SB-C18, 4.6×250 mm, 5 μm (Part No. 880975-902). Mobile Phase A: 80% water, 20% MeCN, 0.01% TFA. Mobile Phase B: 20% water, 80% MeCN, 0.01% TFA. Flow rate: 1 mL/min. Injection Volume: 20 μL. Detector: 225 nm.
Samples were prepared as 0.2-0.3 mg/mL stock solutions in 40% MeOH and 60% MeCN in water, depending on the solubility, for injection onto the HPLC. The amount of 4′-{2-ethoxy-4-ethyl-5-[(2-mercapto-4-methylpentanoylamino)methyl]imidazol-1-ylmethyl}-3′-fluorobiphenyl-2-carboxylic acid ethyl ester (M+28) and 4′-{4-ethyl-5-[(2-mercapto-4-methylpentanoylamino)methyl]-2-oxo-2,3-dihydroimidazol-1-ylmethyl}-3′-fluorobiphenyl-2-carboxylic acid (M−28) present were determined by HPLC area percentage (% AUC or area/area %).

[1] = 2 weeks at 40° C., listed as Ex. 1
[2] = 4 weeks at 40° C., listed as Ex. 1
[3] = 2 weeks at 40° C., listed as Ex. 2
[4] = 4 weeks at 40° C., listed as Ex. 2
[5] = 2 weeks at 40° C., listed as Ex. 3
[6] = 2 weeks at 40° C., listed as stable micronized acid imidazole
[7] = 4 weeks at 40° C., listed as Ex. 3
[8] = 4 weeks at 40° C., listed as stable micronized acid imidazole

% M + 28 (ethyl ester imidazole impurity, HPLC area percentage) [1]: 0.05% | % M − 28 (acid dihydroimidazole impurity, HPLC area percentage) [1]: 0.04% | Δ % M + 28 (increase relative to time zero) [1]: 0.05% | Δ % M − 28 (increase relative to time zero) [1]: −0.01% | % M + 28 (ethyl ester imidazole impurity, HPLC area percentage) [2]: 0.05% | % M − 28 (acid dihydroimidazole impurity, HPLC area percentage) [2]: 0.05% | Δ % M + 28 (increase relative to time zero) [2]: 0.05% | Δ % M − 28 (increase relative to time zero) [2]: 0% | % M + 28 (ethyl ester imidazole impurity, HPLC area percentage) (T = 0, 40° C., listed as Ex. 1): 0% | % M − 28 (acid dihydroimidazole impurity, HPLC area percentage) (T = 0, 40° C., listed as Ex. 1): 0.05%
Structure (SMILES): CCOc1nc(CC)c(CNC(=O)[C@@H](S)CC(C)C)n1Cc1ccc(-c2ccccc2C(=O)O)cc1F [Example 1, 4′-{2-Ethoxy-4-ethyl-5-[((S)-2-mercapto-4-methylpentanoylamino)methyl]imidazol-1-ylmethyl}-3′-fluorobiphenyl-2-carboxylic Acid]

Δ % M + 28 (increase relative to time zero) (2 weeks at 40° C.): about 0.30% | Δ % M − 28 (increase relative to time zero) (2 weeks at 40° C.): about 0.38% | % M + 28 (ethyl ester imidazole impurity, HPLC area percentage) [3]: 0.40% | % M − 28 (acid dihydroimidazole impurity, HPLC area percentage) [3]: 0.47% | Δ % M + 28 (increase relative to time zero) [3]: 0.30% | Δ % M − 28 (increase relative to time zero) [3]: 0.38% | % M + 28 (ethyl ester imidazole impurity, HPLC area percentage) [4]: 0.44% | % M − 28 (acid dihydroimidazole impurity, HPLC area percentage) [4]: 0.61% | Δ % M + 28 (increase relative to time zero) [4]: 0.34% | Δ % M − 28 (increase relative to time zero) [4]: 0.52% | % M + 28 (ethyl ester imidazole impurity, HPLC area percentage) (T = 0, 40° C., listed as Ex. 2): 0.10% | % M − 28 (acid dihydroimidazole impurity, HPLC area percentage) (T = 0, 40° C., listed as Ex. 2): 0.09%
Structure (SMILES): CCOc1nc(CC)c(CNC(=O)[C@@H](S)CC(C)C)n1Cc1ccc(-c2ccccc2C(=O)O)cc1F [Example 2, 4′-{2-ethoxy-4-ethyl-5-[((S)-2-mercapto-4-methylpentanoylamino)-methyl]imidazol-1-ylmethyl}-3′-fluorobiphenyl-2-carboxylic acid]

Δ % M + 28 (increase relative to time zero) (2 weeks at 40° C.): about 0.01% | Δ % M − 28 (increase relative to time zero) (2 weeks at 40° C.): about 0.05% | % M + 28 (ethyl ester imidazole impurity, HPLC area percentage) [5]: 0.07% | % M − 28 (acid dihydroimidazole impurity, HPLC area percentage) [5]: 0.20% | Δ % M + 28 (increase relative to time zero) [5]: 0.01% | Δ % M − 28 (increase relative to time zero) [5]: 0.05% | Δ % M + 28 (increase relative to time zero) [6]: ≤ 0.1% | Δ % M − 28 (increase relative to time zero) [6]: ≤ 0.1% | Δ % M + 28 (increase relative to time zero) (4 weeks at 40° C.): about 0.02% | Δ % M − 28 (increase relative to time zero) (4 weeks at 40° C.): about 0.09% | % M + 28 (ethyl ester imidazole impurity, HPLC area percentage) [7]: 0.08% | % M − 28 (acid dihydroimidazole impurity, HPLC area percentage) [7]: 0.24% | Δ % M + 28 (increase relative to time zero) [7]: 0.02% | Δ % M − 28 (increase relative to time zero) [7]: 0.09% | Δ % M + 28 (increase relative to time zero) [8]: ≤ 0.1% | Δ % M − 28 (increase relative to time zero) [8]: ≤ 0.1% | % M + 28 (ethyl ester imidazole impurity, HPLC area percentage) (T = 0, 40° C., listed as Ex. 3): 0.06% | % M − 28 (acid dihydroimidazole impurity, HPLC area percentage) (T = 0, 40° C., listed as Ex. 3): 0.15% | chemical degradation by HPLC after storage (about 40° C. for at least 2 weeks, with a desiccant such as molecular sieves): minimal chemical degradation
Structure (SMILES): CCOc1nc(CC)c(CNC(=O)[C@@H](S)CC(C)C)n1Cc1ccc(-c2ccccc2C(=O)O)cc1F [Example 3, 4′-{2-ethoxy-4-ethyl-5-[((S)-2-mercapto-4-methylpentanoylamino)methyl]imidazol-1-ylmethyl}-3′-fluorobiphenyl-2-carboxylic acid]
